Data from patent publication US10745382B2 (BRISTOL-MYERS SQUIBB COMPANY, priority 2015, dated 2020).

Biological target: T1, PD-1/PD-L1 (Homo sapiens, UniProt Q9NZQ7)
T1 construct: made in house; host or cells: HEK293T
Assay: PD-1/PD-L1 Homogenous Time-Resolved Fluorescence (HTRF) binding assay
Settings: PD-L1-His 10 nM, PD-1-Ig 20 nM; value given as range class; read-out: Range or IC50
In short: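 Detection by europium cryptate anti-Ig plus APC anti-His (1 nM and 20 nM final) with HTRF signal. Buffer was dPBS, 0.1% BSA, 0.05% Tween-20.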

T1 sequence (Q9NZQ7 with tags, fused parts or gaps): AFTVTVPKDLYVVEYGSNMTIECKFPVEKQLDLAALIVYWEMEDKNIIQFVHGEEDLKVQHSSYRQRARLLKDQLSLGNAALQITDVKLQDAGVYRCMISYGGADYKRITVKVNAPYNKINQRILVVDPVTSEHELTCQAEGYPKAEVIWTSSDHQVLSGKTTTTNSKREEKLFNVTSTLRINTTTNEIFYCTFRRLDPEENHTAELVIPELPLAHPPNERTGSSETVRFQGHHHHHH

| Structure (SMILES) | IC50 [µM] |
| --- | --- |
| Cc1c(COc2cc(OCc3cncc(C#N)c3)c(CN3CCCC[C@H]3C(=O)O)cc2Cl)cccc1-c1cccc(OCCCN2CCC(O)C2)c1C (stereo in doubt) [Example 3006, (S)-1-(5-chloro-2-((5-cyanopyridin-3-yl)methoxy)-4-((3′-(3-((R)-3-hydroxypyrrolidin-1-yl)propoxy)-2,2′-dimethyl-[1,1′-biphenyl]-3-yl)methoxy)benzyl)piperidine-2-carboxylic Acid] | 0.00021 to 0.01 |
| Cc1c(COc2cc(OCc3cncc(C#N)c3)c(CNC(CO)CO)cc2Cl)cccc1-c1cccc(OCCCN2CCC(F)(F)C2)c1C [Example 4116, 5-((4-chloro-5-((3′-(3-(3,3-difluoropyrrolidin-1-yl)propoxy)-2,2′-dimethyl-[1,1′-biphenyl]-3-yl)methoxy)-2-(((1,3-dihydroxypropan-2-yl)amino)methyl)phenoxy)methyl)nicotinonitrile] | 0.00021 to 0.01 |
| Cc1c(COc2cc(OCc3cncc(C#N)c3)c(CNC(C)(CO)CO)cc2Cl)cccc1-c1cccc(OCC(CO)(CO)CO)c1Cl [Example 2085, 5-((4-chloro-5-((2′-chloro-3′-(3-hydroxy-2,2-bis(hydroxymethyl)propoxy)-2-methyl-[1,1′-biphenyl]-3-yl)methoxy)-2-(((1,3-dihydroxy-2-methylpropan-2-yl)amino)methyl)phenoxy)methyl)nicotinonitrile] | 0.00021 to 0.01 |
| Cc1c(COc2cc(OCc3cncc(C#N)c3)c(CN3CCCC[C@H]3C(=O)O)cc2Cl)cccc1-c1cccc(OCCCNC[C@H](O)C(=O)O)c1C [Example 2242, (2S)-1-(4-((3′-(3-((S)-2-carboxy-2-hydroxyethylamino)propoxy)-2,2′-dimethylbiphenyl-3-yl)methoxy)-5-chloro-2-((5-cyanopyridin-3-yl)methoxy)benzyl)piperidine-2-carboxylic Acid] | 0.00021 to 0.01 |
| Cc1c(COc2cc(OCc3cncc(C#N)c3)c(CNCCc3ccncc3)cc2Cl)cccc1-c1cccc(OCCCNCCc2ccncc2)c1Cl [Example 2010, 5-((4-chloro-5-((2′-chloro-2-methyl-3′-(3-((2-(pyridin-4-yl)ethyl)amino)propoxy)-[1,1′-biphenyl]-3-yl)methoxy)-2-(((2-(pyridin-4-yl)ethyl)amino)methyl)phenoxy)methyl)nicotinonitrile] | 0.00021 to 0.01 |
| CN(CCCOc1cccc(-c2cccc(COc3cc(OCc4cncc(C#N)c4)c(CN[C@](C)(CO)C(=O)O)cc3Cl)c2Cl)c1Cl)C[C@H](O)CO [Example 2064, (R)-2-((5-chloro-2-((5-cyanopyridin-3-yl)methoxy)-4-((2,2′-dichloro-3′-(3-(((S)-2,3-dihydroxypropyl)(methyl)amino)propoxy)-[1,1′-biphenyl]-3-yl)methoxy)benzyl)amino)-3-hydroxy-2-methylpropanoic Acid] | 0.00021 to 0.01 |
| Cc1c(COc2cc(OCc3cncc(C#N)c3)c(CN(C)CC(O)CO)cc2Cl)cccc1-c1cccc(OCCCN(C)CC(O)CO)c1C (stereo not shown) [Example 2254, 5-((4-chloro-2-(((2,3-dihydroxypropyl)(methyl)amino)methyl)-5-((3-(3-((2,3-dihydroxypropyl) (methyl)amino)propoxy)-2,2′-dimethylbiphenyl-3-yl)methoxy)phenoxy)methyl)nicotinonitrile] | 0.00021 to 0.01 |
| Cc1c(COc2cc(OCc3cncc(C#N)c3)c(CN3CCCC[C@H]3C(=O)O)cc2Cl)cccc1-c1cccc(OCCCNC[C@H](O)c2ccccc2)c1C [Example 2220, (2S)-1-(5-chloro-2-((5-cyanopyridin-3-yl)methoxy)-4-((3′-(3-((R)-2-hydroxy-2-phenylethylamino)propoxy)-2,2′-dimethylbiphenyl-3-yl)methoxy)benzyl)piperidine-2-carboxylic Acid] | 0.00021 to 0.01 |
| Cc1c(COc2cc(OCc3cncc(C#N)c3)c(CN3CC(=O)NC(=O)C3)cc2Cl)cccc1-c1cccc(OCCCN2CC[C@@H](O)C2)c1C [Example 2329, (R)-5-((4-chloro-2-((3,5-dioxopiperazin-1-yl)methyl)-5-((3′-(3-(3-hydroxypyrrolidin-1-yl)propoxy)-2,2′-dimethyl-[1,1′-biphenyl]-3-yl)methoxy)phenoxy)methyl)nicotinonitrile] | 0.00021 to 0.01 |
| CCN(CC)C(=O)c1cccc(-c2cccc(COc3cc(OCc4cncc(C#N)c4)c(CN4C[C@@H](O)C[C@H]4C(=O)O)cc3Cl)c2C)c1C [Example 4043, (2S,4S)-1-(5-chloro-2-((5-cyanopyridin-3-yl)methoxy)-4-((3′-(diethylcarbamoyl)-2,2′-dimethyl-[1,1′-biphenyl]-3-yl)methoxy)benzyl)-4-hydroxypyrrolidine-2-carboxylic Acid] | 0.01 to 0.1 |

Now from value to compound:

| IC50 [µM] | Structure (SMILES) |
| --- | --- |
| 0.00021 to 0.01 | Cc1c(OCCCN2CC[C@@H](O)C2)cccc1-c1cccc(COc2cc(OCC#N)c(CNC(CO)CO)cc2Cl)c1Cl [Example 2314, (R)-2-(4-chloro-5-((2-chloro-3′-(3-(3-hydroxypyrrolidin-1-yl)propoxy)-2′-methyl-[1,1′-biphenyl]-3-yl)methoxy)-2-(((1,3-dihydroxypropan-2-yl)amino)methyl)phenoxy)acetonitrile] |
| 0.00021 to 0.01 | Cc1c(COc2cc(OCc3cncc(C#N)c3)c(CNC[C@H](O)CO)cc2Cl)cccc1-c1cccc(OCCCN2CC[C@H](O)[C@@H](O)C2)c1Cl [Example 2030, 5-((4-chloro-5-((2′-chloro-3′-(3-((3S,4S)-3,4-dihydroxypiperidin-1-yl)propoxy)-2-methyl-[1,1′-biphenyl]-3-yl)methoxy)-2-((((S)-2,3-dihydroxypropyl)amino)methyl)phenoxy)methyl)nicotinonitrile] |
| 0.00021 to 0.01 | Cc1cc(COc2cc(OCc3cncc(C#N)c3)c(CN[C@](C)(CO)C(=O)O)cc2Cl)c(C)c(-c2cccc(OCCCN3CC[C@@H](O)C3)c2C)c1 [Example 3026, (R)-2-((5-chloro-2-((5-cyanopyridin-3-yl)methoxy)-4-((3′-(3-((R)-3-hydroxypyrrolidin-1-yl)propoxy)-2,2′,5-trimethyl-[1,1′-biphenyl]-3-yl)methoxy)benzyl)amino)-3-hydroxy-2-methylpropanoic Acid, 2TFA] |
| 0.00021 to 0.01 | Cc1c(COc2cc(OCc3cncc(C#N)c3)c(CN[C@@H](CC(C)C)C(=O)O)cc2Cl)cccc1-c1cccc(OCCCN2CC[C@@H](O)C2)c1C [Example 4153, (5-chloro-2-((5-cyanopyridin-3-yl)methoxy)-4-((3′-(3-((R)-3-hydroxypyrrolidin-1-yl)propoxy)-2,2′-dimethyl-[1,1′-biphenyl]-3-yl)methoxy)benzyl)-L-leucine] |
| 0.01 to 0.1 | C=CC(=O)NCCNCc1cc(Cl)c(OCc2cccc(-c3cccc(OCCCN4CC[C@@H](O)C4)c3C)c2C)cc1OCc1cncc(C#N)c1 [Example 1031, (R)—N-(2-((5-chloro-2-((5-cyanopyridin-3-yl)methoxy)-4-((3′-(3-(3-hydroxypyrrolidin-1-yl)propoxy)-2,2′-dimethyl-[1,1′-biphenyl]-3-yl)methoxy)benzyl)amino)ethyl)acrylamide] |
| 0.00021 to 0.01 | Cc1c(COc2cc(OCc3cncc(C#N)c3)c(CN[C@@](C)(CO)C(=O)O)cc2Cl)cccc1-c1cccc(OCCCN2CCCCC2)c1C [Example 2272, (S)-2-((5-chloro-2-((5-cyanopyridin-3-yl)methoxy)-4-((2,2′-dimethyl-3′-(3-(piperidin-1-yl)propoxy)-[1,1′-biphenyl]-3-yl)methoxy)benzyl)amino)-3-hydroxy-2-methylpropanoic Acid] |
